# According to US11369114B2, “Antimicrobial coatings comprising organosilane homopolymers” (ALLIED BIOSCIENCE, INC., priority 2014, dated 2022):
# System: E. coli
# Assay: Efficacy of treated coupons after inoculation with E. coli (Examples II-V)
# Assay type: cell-based
# Conditions: Examples IV/V: organosilane with triethanolamine coating first, Titanium Oxide Moieties (TiO2) disposed over it
# Procedure: This Example II disposes the components of the composition onto a target surface in a reverse order. More specifically, Applicants first dispose the Titanium-Oxide Moieties onto the target surface, the aqueous portion of the first spray deposition is evaporated, and then dispose Octadecylaminodimethyltrihydroxysilylpropyl Ammonium Chloride 6 over the earlier-disposed Titanium-Oxide Moieties.
# The test coupons of this Example II were prepared and using the Procedure recited immediately hereinbelow. In various embodiments, the treated coupons were stored for at least four (4) weeks prior to inoculation with various organisms.
# This Example III simultaneously disposes a mixture of the organosilane and the Titanium-Oxide Moieties onto the surface of a plurality of test coupons. More specifically in this Example III, the simultaneously dispose the Titanium-Oxide Moieties and Octadecylaminodimethyltrihydroxysilylpropyl Ammonium Chloride 6 onto a surface of each test coupon.
# The test coupons of this Example III were prepared and using the Procedure recited immediately hereinbelow. In various embodiments, the treated coupons were stored for at least four (4) weeks prior to inoculation with various organisms.
# The test coupons of this Example IV were prepared and using the Procedure recited immediately hereinbelow. […]
row,SMILES,efficacy of treated coupons (self-decontaminating surface)
1,NCCC[Si](O)(O)O [3-aminopropyltrihydroxysilane],generates a self-decontaminating surface
2,O[Si](O)(O)CCCCl [3-chloropropyltrihydroxysilane],generates a self-decontaminating surface
